Reference: patent publication US11535838B2, “Serine protease molecules and therapies” (Research Development Foundation, priority 2012, dated 2022)

Assays:
[1] = system: A375-M; assay: Cytotoxic effects of GrB/ZME fusion constructs; assay type: cell-based; details: specifically targeted by ZME
Text: (§1) GrB-ZME(VL-VH) fusion proteins were constructed as indicated above using different linkers between the GrB and ZME sequences. The construct SL used the G4S linker; LL was four repeats of the HL (EAAAK (SEQ ID NO: 14)) linker and X was a G4S+218 linker.
(§2) Two glycosylation sites were identified within the GrB molecule (d1 and d2) and modified the GrB/scFvMEL fusion construct as detailed above and as shown in FIG. 4 (d1 indicates N51S; d2 indicates N84A). Each glycosylation site was modified and then a molecule containing both modifications was generated. The individual modifications had little effect on in vitro GrB enzymatic activity (see, e.g., FIG. 4). […] There was little impact on the non-specific cell line (SKOV3).
(§3) Three expression constructs were developed and tested. (LL) encoded GrB-HL-HL-HL-HL-ZME(VL-VH), plasmid designation pSECTag-GrB-HL4-ZME; (E) encoded GrB HL HL HL HL T1 ZME(VL-VH), plasmid designation pSECTag-GrB-HL4-T1-ZME; and (J) (LL) encoded GrB (d1, A, N) HL HL HL HL ZME(VL-VH), plasmid designation pSECTag-GrB-HL4-ZME. The constructs were expressed and tested. […] Incorporation of d1 modified GrB into the construct further increased the specific cytotoxicity of the construct with no impact on non-specific cytotoxicity.
(§4) These constructs were expressed and tested.
(§5) These constructs were expressed and tested. […] Incorporation of the “26” molecule increased the toxicity to target and non-target cells alike.

[2] = system: AAB-527; assay: Cytotoxic effects of GrB/ZME fusion constructs; assay type: cell-based; details: AAB-527, specifically targeted by ZME
Text: as §1, §2, §3, §4, §5

[3] = system: SKOV3; assay: Cytotoxic effects of GrB/ZME fusion constructs; assay type: cell-based; details: SKOV3, non-specific control
Text: as §1, §2, §3, §4, §5

[4] = system: Calu-3; assay: Cytotoxic effects of GrB/4D5 fusion constructs with and without a translocation domain; assay type: cell-based; details: Calu-3, Her2 Exp. High
Text: (§6) Further GrB expression constructs were developed and tested.
as §4

[5] = system: MDA-MB-453; assay: as above; assay type: cell-based; details: MDA-MB-453, Her2 Exp. High
Text: as §6, §4

[6] = system: Me-180; assay: as above; assay type: cell-based; details: Me-180, Her2 Exp. none
Text: as §6, §4

[7] = system: NCI-N87; assay: as above; assay type: cell-based; details: NCI-N87, Her2 Exp. High
Text: as §6, §4

[8] = system: SKBR3; assay: as above; assay type: cell-based; details: SKBR3, Her2 Exp. High
Text: as §6, §4

[9] = system: SKOV3; assay: as above; assay type: cell-based; details: SKOV3, Her2 Exp. High
Text: as §6, §4

[10] = system: A172; assay: Cytotoxic effects of GrB versus GrB-TWEAK; assay type: cell-based
Text: (§7) Further GrB expression constructs were developed and tested. (GrB) encoded GrB, plasmid designation pSECTag-GrB. […] These constructs were expressed and tested.

[11] = system: A2780; assay: Cytotoxic effects of GrB versus GrB-TWEAK; assay type: cell-based
Text: as §7

[12] = system: A375-M; assay: Cytotoxic effects of GrB versus GrB-TWEAK; assay type: cell-based
Text: as §7

[13] = system: AAB-527; assay: Cytotoxic effects of GrB versus GrB-TWEAK; assay type: cell-based
Text: as §7

[14] = system: BxPC-3; assay: Cytotoxic effects of GrB versus GrB-TWEAK; assay type: cell-based
Text: as §7

[15] = system: ES-2; assay: Cytotoxic effects of GrB versus GrB-TWEAK; assay type: cell-based
Text: as §7

[16] = system: HEY; assay: Cytotoxic effects of GrB versus GrB-TWEAK; assay type: cell-based
Text: as §7

[17] = system: HT-1080; assay: Cytotoxic effects of GrB versus GrB-TWEAK; assay type: cell-based
Text: as §7

[18] = system: HT-29; assay: Cytotoxic effects of GrB versus GrB-TWEAK; assay type: cell-based
Text: as §7

[19] = system: HeyA8-MDR; assay: Cytotoxic effects of GrB versus GrB-TWEAK; assay type: cell-based
Text: as §7

[20] = system: HeyA8; assay: Cytotoxic effects of GrB versus GrB-TWEAK; assay type: cell-based
Text: as §7

[21] = system: Jurkat; assay: Cytotoxic effects of GrB versus GrB-TWEAK; assay type: cell-based
Text: as §7

[22] = system: MCF-7; assay: Cytotoxic effects of GrB versus GrB-TWEAK; assay type: cell-based
Text: as §7

[23] = system: MDA-MB231; assay: Cytotoxic effects of GrB versus GrB-TWEAK; assay type: cell-based
Text: as §7

[24] = system: MDA-MB435/MDR1; assay: Cytotoxic effects of GrB versus GrB-TWEAK; assay type: cell-based
Text: as §7

[25] = system: MDA-MB435; assay: Cytotoxic effects of GrB versus GrB-TWEAK; assay type: cell-based
Text: as §7

[26] = system: OC-316; assay: Cytotoxic effects of GrB versus GrB-TWEAK; assay type: cell-based
Text: as §7

[27] = system: SB2; assay: Cytotoxic effects of GrB versus GrB-TWEAK; assay type: cell-based
Text: as §7

[28] = system: SK-Mel-1; assay: Cytotoxic effects of GrB versus GrB-TWEAK; assay type: cell-based
Text: as §7

[29] = system: SK-Mel-28; assay: Cytotoxic effects of GrB versus GrB-TWEAK; assay type: cell-based
Text: as §7

[30] = system: SK-Mel-5; assay: Cytotoxic effects of GrB versus GrB-TWEAK; assay type: cell-based
Text: as §7

[31] = system: SKBR3; assay: Cytotoxic effects of GrB versus GrB-TWEAK; assay type: cell-based
Text: as §7

[32] = system: T-24; assay: Cytotoxic effects of GrB versus GrB-TWEAK; assay type: cell-based
Text: as §7

[33] = system: U87MG; assay: Cytotoxic effects of GrB versus GrB-TWEAK; assay type: cell-based
Text: as §7

[34] = system: WM35; assay: Cytotoxic effects of GrB versus GrB-TWEAK; assay type: cell-based
Text: as §7

[35] = system: Calu3; assay: In vitro cytotoxic effects of GrB-based fusions, crystal violet; assay type: cell-based; details: Table 11, Calu3, 72 h exposure
[36] = system: NCI-N87; assay: as above; assay type: cell-based; details: Table 11, NCI-N87, 72 h exposure
[37] = system: MDA MB453; assay: as above; assay type: cell-based, human; details: Table 11, MDA MB453, 72 h exposure
[38] = system: eB-1; assay: as above; assay type: cell-based, human; details: Table 11, eB-1, 72 h exposure
[39] = system: MDA MB435; assay: as above; assay type: cell-based; details: Table 11, MDA MB435, 72 h exposure
[40] = system: Me180; assay: as above; assay type: cell-based, human; details: Table 11, Me180, 72 h exposure
[41] = system: A375; assay: Cytotoxicity of GrB-Fc-IT4 constructs; assay type: cell-based
Text: (§8) As an initial test of this arrangement a construct was produced comprising GrB-Fc-IT4 (scFv). Specifically, the IT4 scFv targets the product of the tumor necrosis factor receptor superfamily, member 12A (TNFRSF12A) gene and was previously described in Zhou et al., 2011, which is incorporated herein by reference. The sequence of the fusion protein produced by the construct is provided as SEQ ID NO: 45. The constructs was expressed and purified as detailed supra and tested for activity against a panel of cells lines (using GrB alone a control).

[42] = system: A549; assay: Cytotoxicity of GrB-Fc-IT4 constructs; assay type: cell-based
Text: as §8

[43] = system: AsPc-1; assay: Cytotoxicity of GrB-Fc-IT4 constructs; assay type: cell-based
Text: as §8

[44] = system: Capan-1; assay: Cytotoxicity of GrB-Fc-IT4 constructs; assay type: cell-based
Text: as §8

[45] = system: Capan-2; assay: Cytotoxicity of GrB-Fc-IT4 constructs; assay type: cell-based
Text: as §8

[46] = system: H1437; assay: Cytotoxicity of GrB-Fc-IT4 constructs; assay type: cell-based
Text: as §8

[47] = system: H1975; assay: Cytotoxicity of GrB-Fc-IT4 constructs; assay type: cell-based
Text: as §8

[48] = system: H2073; assay: Cytotoxicity of GrB-Fc-IT4 constructs; assay type: cell-based
Text: as §8

[49] = system: H3255; assay: Cytotoxicity of GrB-Fc-IT4 constructs; assay type: cell-based
Text: as §8

[50] = system: H358; assay: Cytotoxicity of GrB-Fc-IT4 constructs; assay type: cell-based
Text: as §8

[51] = system: H520; assay: Cytotoxicity of GrB-Fc-IT4 constructs; assay type: cell-based
Text: as §8

[52] = system: HCC2279; assay: Cytotoxicity of GrB-Fc-IT4 constructs; assay type: cell-based
Text: as §8

[53] = system: HCC827; assay: Cytotoxicity of GrB-Fc-IT4 constructs; assay type: cell-based
Text: as §8

[54] = system: HT-29; assay: Cytotoxicity of GrB-Fc-IT4 constructs; assay type: cell-based
Text: as §8

[55] = system: L3.6p1; assay: Cytotoxicity of GrB-Fc-IT4 constructs; assay type: cell-based
Text: as §8

[56] = system: MCF-7; assay: Cytotoxicity of GrB-Fc-IT4 constructs; assay type: cell-based
Text: as §8

[57] = system: MDA-MB-231; assay: Cytotoxicity of GrB-Fc-IT4 constructs; assay type: cell-based
Text: as §8

[58] = system: MDA-MB-435; assay: Cytotoxicity of GrB-Fc-IT4 constructs; assay type: cell-based
Text: as §8

[59] = system: MDA-MD-231-Luc; assay: Cytotoxicity of GrB-Fc-IT4 constructs; assay type: cell-based
Text: as §8

[60] = system: MEF 3.5 −/−; assay: Cytotoxicity of GrB-Fc-IT4 constructs; assay type: cell-based
Text: as §8

[61] = system: SB2; assay: Cytotoxicity of GrB-Fc-IT4 constructs; assay type: cell-based
Text: as §8

[62] = system: SK-MEF-28; assay: Cytotoxicity of GrB-Fc-IT4 constructs; assay type: cell-based
Text: as §8

[63] = system: WM35P2N1; assay: Cytotoxicity of GrB-Fc-IT4 constructs; assay type: cell-based
Text: as §8

[64] = system: WM35; assay: Cytotoxicity of GrB-Fc-IT4 constructs; assay type: cell-based
Text: as §8

[65] = Enzymatic assay of GrB component, continuous colorimetric assay; assay type: biochemical; details: substrate BAADT, 25° C., native GrB as standard
Method: The enzymatic activity of the GrB component was determined in a continuous colorimetric assay using N-α-t-butoxycarbonyl-L-alanyl-L-alanyl-L-aspartyl-thiobenzylester (BAADT) as a specific substrate (Liu et al., 2003). Assays consisted of commercial human GrB (Enzyme Systems Products, Livermore, Calif.) or GrB-based fusion proteins in BAADT at 25° C. […] The specific activity of GrB-based fusion proteins was calculated using native GrB as the standard.

Substance: GrB: recombinant Granzyme B without targeting moiety, plasmid pSECTag-GrB, used as control
- IC50 [1]: > 2000 nM
- IC50 [2]: > 2000 nM
- IC50 [3]: > 2000 nM
- IC50 [4]: > 1000 nM
- IC50 [5]: > 1000 nM
- IC50 [6]: > 1000 nM
- IC50 [7]: > 1000 nM
- IC50 [8]: > 1000 nM
- IC50 [9]: > 1000 nM
- IC50 [10]: 1910 nM
- IC50 [11]: > 1300 nM
- IC50 [12]: > 1920 nM
- IC50 [13]: 1040 nM
- IC50 [14]: > 1920 nM
- IC50 [15]: 1440 nM
- IC50 [16]: 1020 nM
- IC50 [17]: 1300 nM
- IC50 [18]: 800 nM
- IC50 [19]: > 700 nM
- IC50 [20]: 841 nM
- IC50 [21]: > 700 nM
- IC50 [22]: > 1920 nM
- IC50 [23]: > 1920 nM
- IC50 [24]: 447 nM
- IC50 [25]: 445 nM
- IC50 [26]: > 1920 nM
- IC50 [27]: > 1920 nM
- IC50 [28]: > 1920 nM
- IC50 [29]: > 1920 nM
- IC50 [30]: 3010 nM
- IC50 [31]: 660 nM
- IC50 [32]: 2630 nM
- IC50 [33]: 825 nM
- IC50 [34]: > 1920 nM
- IC50 [35]: > 1500 nM
- IC50 [36]: > 1500 nM
- IC50 [37]: > 1500 nM
- IC50 [38]: > 1500 nM
- IC50 [39]: > 1500 nM
- IC50 [40]: > 1500 nM
- IC50 [41]: > 1920 nM
- IC50 [42]: 602 nM
- IC50 [43]: 1300 nM
- IC50 [44]: 2340 nM
- IC50 [45]: > 3200 nM
- IC50 [46]: > 3200 nM
- IC50 [47]: > 3200 nM
- IC50 [48]: > 3200 nM
- IC50 [49]: 2360 nM
- IC50 [50]: > 3200 nM
- IC50 [51]: 259 nM
- IC50 [52]: 526 nM
- IC50 [53]: 1410 nM
- IC50 [54]: > 3200 nM
- IC50 [55]: 1220 nM
- IC50 [56]: > 1920 nM
- IC50 [57]: > 1930 nM
- IC50 [58]: 445 nM
- IC50 [59]: 3550 nM
- IC50 [60]: > 3200 nM
- IC50 [61]: > 1920 nM
- IC50 [62]: > 1920 nM
- IC50 [63]: 1540 nM
- IC50 [64]: > 1920 nM

Substance: native GrB: commercial human GrB (Enzyme Systems Products) used as the standard
- GrB enzymatic activity [65]: 1.19×10^5 U/μmoL
